This passage reports Kd, IC50 and melting point results from patent publication US10526316B2, “Quinoxaline and pyridopyrazine derivatives as PI3Kβ inhibitors” (Janssen Pharmaceutica NV, priority 2015, dated 2020).

In data set [1] the target is T1, PI3Kβ (Homo sapiens, UniProt P42338).
T1 construct: purchased DiscoveRx Corporation, San Diego (contract service, KINOMEscan)
The data set can be described thus: Enzyme binding assay (KINOMEscan, DiscoveRx). The conditions noted are these: PIK3Cβ_h, read-out: Kd PIK3Cβ_h. In outline:
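Values are Kd in nM, the binding constant of each inhibitor for the kinase, obtained from a KINOMEscan enzyme binding assay.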

In data set [2] the target is T2, PI3Kδ (Homo sapiens, UniProt O00329).
T2 construct: purchased DiscoveRx Corporation, San Diego (contract service, KINOMEscan)
T2 sequence (O00329 1-1044): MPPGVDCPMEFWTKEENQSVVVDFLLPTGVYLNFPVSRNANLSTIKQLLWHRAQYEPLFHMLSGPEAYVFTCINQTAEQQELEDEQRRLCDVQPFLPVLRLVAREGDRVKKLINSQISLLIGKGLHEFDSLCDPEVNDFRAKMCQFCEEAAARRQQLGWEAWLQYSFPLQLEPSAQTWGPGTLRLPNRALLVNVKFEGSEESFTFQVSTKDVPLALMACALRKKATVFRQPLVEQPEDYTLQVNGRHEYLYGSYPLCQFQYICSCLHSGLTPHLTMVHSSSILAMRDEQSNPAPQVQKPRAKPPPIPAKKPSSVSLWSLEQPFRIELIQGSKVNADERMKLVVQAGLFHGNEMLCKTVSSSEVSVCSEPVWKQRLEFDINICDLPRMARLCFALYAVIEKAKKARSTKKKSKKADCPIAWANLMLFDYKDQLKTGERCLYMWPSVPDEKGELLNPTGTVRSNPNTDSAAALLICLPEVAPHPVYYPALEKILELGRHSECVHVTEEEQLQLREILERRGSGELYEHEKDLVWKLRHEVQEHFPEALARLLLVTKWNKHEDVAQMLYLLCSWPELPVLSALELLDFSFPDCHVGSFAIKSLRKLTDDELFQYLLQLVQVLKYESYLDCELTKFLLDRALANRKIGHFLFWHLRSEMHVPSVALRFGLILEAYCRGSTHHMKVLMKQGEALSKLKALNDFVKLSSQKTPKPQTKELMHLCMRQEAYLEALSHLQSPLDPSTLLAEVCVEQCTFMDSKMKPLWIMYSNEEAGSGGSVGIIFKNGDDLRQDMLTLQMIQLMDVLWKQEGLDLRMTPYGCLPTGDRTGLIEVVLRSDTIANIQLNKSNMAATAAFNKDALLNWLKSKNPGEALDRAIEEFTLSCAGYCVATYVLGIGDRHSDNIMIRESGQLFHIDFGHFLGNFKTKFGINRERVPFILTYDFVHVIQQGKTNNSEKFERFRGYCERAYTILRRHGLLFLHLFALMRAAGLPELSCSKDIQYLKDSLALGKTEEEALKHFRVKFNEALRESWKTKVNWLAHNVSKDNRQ
The data set can be described thus: Enzyme binding assay (KINOMEscan, DiscoveRx). Conditions: PIK3Cδ_h. In outline: (§1)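 Affinity for each kinase was determined by KINOMEscan profiling.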

The target in data set [3] is T3, kinase enzymes (Homo sapiens, UniProt P42336).
T3 construct: purchased DiscoveRx Corporation, San Diego (contract service, KINOMEscan)
The data set can be described thus: Enzyme binding assay (KINOMEscan, DiscoveRx), further kinases of Table A. The conditions noted are these: PIK3Cα_h. The essentials: as §1

For data set [4], the target named is T4, kinase enzymes (Homo sapiens, UniProt P42345).
T4 construct: purchased DiscoveRx Corporation, San Diego (contract service, KINOMEscan)
Described as above. Conditions: MTOR_h. In outline:
as §1

Data set [5] has as its target T5, kinase enzymes (Homo sapiens, UniProt P48736).
T5 construct: purchased DiscoveRx Corporation, San Diego (contract service, KINOMEscan)
Described as above. Conditions: PIK3Cγ_h. In outline: as §1

The test system of data set [6] is Akt phosphorylated at Ser473 in PC-3 cells. The data set can be described thus: Cellular assay: phosphorylation of Akt at Ser473 in PC-3 cells (MSD ELISA). The class given is cell-based. The conditions noted are these: PC-3 cells, 60 min compound incubation, MSD ELISA, read-out: IC50 pAkt_S473. In outline: (§2)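 PC-3 cells were exposed to compound or 0.3% DMSO for 60 min at 37° C, 5% CO2, then lysed in ice-cold buffer. Phospho-Akt was captured on site-specific antibody-coated plates and detected with Sulfo-tag anti-total Akt by electrochemiluminescence. IC50 values came from five-concentration response curves.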

The test system of data set [7] is Akt phosphorylated at Thr308 in PC-3 cells. The data set is described as follows: Cellular assay: phosphorylation of Akt at Thr308 in PC-3 cells (MSD ELISA). It counts as cell-based. The conditions noted are these: PC-3 cells, 60 min compound incubation, MSD ELISA, read-out: IC50 pAkt_Thr308. In outline: as §2

Where two headings read alike, the source gives them in different places.

T1 sequence (P42338 whole entry): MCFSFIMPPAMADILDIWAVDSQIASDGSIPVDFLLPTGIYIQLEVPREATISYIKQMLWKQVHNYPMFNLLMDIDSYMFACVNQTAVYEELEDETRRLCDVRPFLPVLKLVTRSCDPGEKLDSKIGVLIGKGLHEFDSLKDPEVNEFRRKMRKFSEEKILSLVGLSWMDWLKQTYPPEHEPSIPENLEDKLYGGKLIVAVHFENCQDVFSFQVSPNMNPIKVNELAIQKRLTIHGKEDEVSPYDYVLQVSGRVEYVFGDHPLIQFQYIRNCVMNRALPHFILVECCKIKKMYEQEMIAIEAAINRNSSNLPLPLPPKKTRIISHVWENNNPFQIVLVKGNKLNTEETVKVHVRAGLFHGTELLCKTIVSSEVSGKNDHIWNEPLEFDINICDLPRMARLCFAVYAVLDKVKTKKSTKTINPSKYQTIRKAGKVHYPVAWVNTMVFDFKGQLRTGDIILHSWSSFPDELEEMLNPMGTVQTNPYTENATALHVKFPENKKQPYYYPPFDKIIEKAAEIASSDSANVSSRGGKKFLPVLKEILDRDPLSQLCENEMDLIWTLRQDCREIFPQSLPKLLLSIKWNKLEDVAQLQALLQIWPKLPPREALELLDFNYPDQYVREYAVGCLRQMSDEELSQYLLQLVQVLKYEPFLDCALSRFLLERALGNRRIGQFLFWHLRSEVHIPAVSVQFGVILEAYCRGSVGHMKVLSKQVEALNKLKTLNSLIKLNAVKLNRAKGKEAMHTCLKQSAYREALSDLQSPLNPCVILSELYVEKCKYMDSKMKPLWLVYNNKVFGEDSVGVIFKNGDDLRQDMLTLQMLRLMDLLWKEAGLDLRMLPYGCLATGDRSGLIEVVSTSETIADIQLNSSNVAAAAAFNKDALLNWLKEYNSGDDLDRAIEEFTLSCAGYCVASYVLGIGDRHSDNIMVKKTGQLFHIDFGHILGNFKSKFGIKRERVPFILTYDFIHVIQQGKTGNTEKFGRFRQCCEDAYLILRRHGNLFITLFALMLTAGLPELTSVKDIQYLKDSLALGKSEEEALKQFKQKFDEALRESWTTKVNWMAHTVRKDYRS
T5 sequence (P48736 whole entry): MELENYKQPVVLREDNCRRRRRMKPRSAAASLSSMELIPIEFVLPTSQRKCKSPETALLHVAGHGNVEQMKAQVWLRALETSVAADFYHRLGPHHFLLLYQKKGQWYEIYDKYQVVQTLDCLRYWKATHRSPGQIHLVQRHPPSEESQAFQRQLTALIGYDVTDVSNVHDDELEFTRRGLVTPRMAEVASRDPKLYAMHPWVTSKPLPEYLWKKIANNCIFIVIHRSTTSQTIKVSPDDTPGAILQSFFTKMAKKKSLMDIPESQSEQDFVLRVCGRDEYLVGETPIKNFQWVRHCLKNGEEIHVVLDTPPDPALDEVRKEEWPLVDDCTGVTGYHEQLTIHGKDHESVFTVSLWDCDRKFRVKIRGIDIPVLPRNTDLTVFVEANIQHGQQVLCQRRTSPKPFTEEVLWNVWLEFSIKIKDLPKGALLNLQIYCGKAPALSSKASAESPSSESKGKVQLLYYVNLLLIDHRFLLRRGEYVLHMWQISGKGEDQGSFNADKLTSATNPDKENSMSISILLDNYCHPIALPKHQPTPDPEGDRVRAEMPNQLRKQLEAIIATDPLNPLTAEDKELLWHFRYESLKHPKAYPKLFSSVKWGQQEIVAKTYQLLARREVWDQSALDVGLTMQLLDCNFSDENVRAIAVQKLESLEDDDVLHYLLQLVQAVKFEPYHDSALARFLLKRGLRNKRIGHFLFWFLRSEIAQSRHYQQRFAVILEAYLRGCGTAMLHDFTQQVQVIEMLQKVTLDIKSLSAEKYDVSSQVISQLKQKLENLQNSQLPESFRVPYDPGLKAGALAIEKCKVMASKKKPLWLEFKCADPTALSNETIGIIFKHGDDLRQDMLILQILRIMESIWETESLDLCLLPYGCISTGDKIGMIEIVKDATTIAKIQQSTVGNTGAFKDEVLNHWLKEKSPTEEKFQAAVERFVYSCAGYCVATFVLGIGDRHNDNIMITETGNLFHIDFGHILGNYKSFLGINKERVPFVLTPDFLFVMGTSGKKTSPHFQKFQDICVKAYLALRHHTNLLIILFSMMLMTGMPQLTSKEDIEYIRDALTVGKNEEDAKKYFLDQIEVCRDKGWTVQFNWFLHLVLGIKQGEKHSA
T3 sequence (P42336 whole entry): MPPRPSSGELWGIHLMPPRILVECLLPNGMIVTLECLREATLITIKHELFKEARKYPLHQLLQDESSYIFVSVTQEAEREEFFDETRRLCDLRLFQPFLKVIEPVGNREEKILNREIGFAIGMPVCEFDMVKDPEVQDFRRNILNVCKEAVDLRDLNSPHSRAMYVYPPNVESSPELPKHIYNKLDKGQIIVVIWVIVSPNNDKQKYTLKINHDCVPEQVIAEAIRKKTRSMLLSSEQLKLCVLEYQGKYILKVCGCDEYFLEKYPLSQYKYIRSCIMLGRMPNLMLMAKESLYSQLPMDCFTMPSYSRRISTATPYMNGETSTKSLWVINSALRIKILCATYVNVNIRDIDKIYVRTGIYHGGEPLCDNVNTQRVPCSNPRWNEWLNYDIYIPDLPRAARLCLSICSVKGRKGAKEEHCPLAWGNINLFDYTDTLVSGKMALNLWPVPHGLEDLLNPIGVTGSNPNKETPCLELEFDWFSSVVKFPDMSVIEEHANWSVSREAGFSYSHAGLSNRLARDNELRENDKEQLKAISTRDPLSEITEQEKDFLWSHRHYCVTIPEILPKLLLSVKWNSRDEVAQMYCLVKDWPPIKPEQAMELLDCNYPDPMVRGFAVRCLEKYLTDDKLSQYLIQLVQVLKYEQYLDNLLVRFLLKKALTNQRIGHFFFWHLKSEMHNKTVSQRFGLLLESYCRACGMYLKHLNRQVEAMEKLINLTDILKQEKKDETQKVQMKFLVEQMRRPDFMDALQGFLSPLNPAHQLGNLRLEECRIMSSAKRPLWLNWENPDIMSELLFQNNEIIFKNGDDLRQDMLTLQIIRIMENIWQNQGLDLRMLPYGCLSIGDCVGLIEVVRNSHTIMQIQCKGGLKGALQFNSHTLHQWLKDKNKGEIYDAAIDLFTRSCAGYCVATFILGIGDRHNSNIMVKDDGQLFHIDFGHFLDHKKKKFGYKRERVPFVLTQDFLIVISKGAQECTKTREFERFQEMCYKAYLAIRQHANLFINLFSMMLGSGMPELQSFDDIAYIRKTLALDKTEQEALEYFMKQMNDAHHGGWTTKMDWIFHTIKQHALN

A word on the Kd: it is the constant that tells how readily two partners part at equilibrium. A word on the IC50: it is the concentration that gives 50% inhibition. Broadly, the melting point is the temperature of the solid-liquid transition. Consider `CCN1CCN(C(=O)c2cc(C3CCCN3c3cc(F)cc(F)c3)c3nc(N4CCOCC4)cnc3c2)CC1` (stereo not drawn) [Compound 142], for which the melting point came out at 80 °C. Further, in data set [1], the Kd was 0.5 nM. Besides, in data set [2], the Kd was determined as 59 nM. This compound also had an equilibrium dissociation constant (Kd) in data set [3] of 209 nM. The same compound showed a Kd in data set [4] above 30200 nM. Besides, binding in data set [5] was put at a Kd of 741 nM. Moreover, the IC50 in data set [6] (Homo sapiens, PC-3, 1 h) came to 10 nM. Besides, the 50% inhibitory concentration (IC50) in data set [7] (Homo sapiens, PC-3, 1 h) worked out at 7 nM.
`CC(Oc1ccc(F)c(F)c1)c1cc(C(=O)N(C)CCN(C)C)cc2ncc(N3CCOCC3)nc12` (stereo not drawn) [Compound 353]: the melting point came to 80 °C. In addition, the Kd in data set [1] was 4 nM. In data set [2], this compound displayed a Kd of 692 nM. In addition, the Kd in data set [3] was 5010 nM. For the same compound, the Kd in data set [4] is above 30200 nM. In data set [5], this compound showed a Kd above 30200 nM. In addition, the IC50 in data set [6] (Homo sapiens, PC-3, 1 h) came to 52 nM. Moreover, the IC50 in data set [7] (Homo sapiens, PC-3, 1 h) turned out to be 18 nM.
In turn, `CC(Nc1ccc(F)c(F)c1)c1cc(C(=O)N[C@H]2CCNC2)cc2ncc(N3CCOCC3)nc12` (single isomer, unassigned) [Compound 374b] registered a melting point of 130 °C. Moreover, in data set [1], the Kd came out at 98 nM. In addition, in data set [2], the Kd amounted to 5750 nM. This compound also displayed a Kd in data set [3] of 13500 nM. In data set [4], this compound displayed a Kd above 30200 nM. Besides, the Kd in data set [5] came to 21900 nM. In data set [6], the IC50 was above 513 nM. In data set [7], the IC50 is above 513 nM.
For `CC(Nc1cc(F)cc(F)c1)c1cc(C=NO)cc2ncc(N3CCOCC3)nc12` (single isomer, unassigned) [Compound 225], the melting point was 80 °C. For the same compound, the Kd in data set [1] was 6 nM. Further, the affinity in data set [2], expressed as Kd, was 537 nM. In addition, in data set [3], the equilibrium dissociation constant (Kd) was found to be 4680 nM. Further, the dissociation constant (Kd) in data set [4] was above 30200 nM. In addition, the affinity in data set [5], expressed as Kd, was 2510 nM. Besides, the IC50 in data set [6] (Homo sapiens, PC-3, 1 h) was 102 nM. The IC50 in data set [7] (Homo sapiens, PC-3, 1 h) came out at 87 nM.
`O=C(O)c1cc(C2CCCN2c2cc(F)cc(F)c2)c2nc(N3CCOCC3)cnc2c1` (stereo not drawn) [Compound 62] yielded a melting point above 260 °C. In addition, the Kd in data set [1] is 1 nM. Also, the Kd in data set [2] was 51 nM. Moreover, in data set [3], the Kd turned out to be 25 nM. Also, in data set [4], the Kd came out at 2040 nM. Also, the Kd in data set [5] is 234 nM. Besides, in data set [6] (Homo sapiens, PC-3, 1 h), the IC50 was found to be 52 nM. Besides, in data set [7] (Homo sapiens, PC-3, 1 h), the IC50 was 32 nM.
Take `CC(c1cc(C(=O)O)cc2ncc(N3CCOCC3)nc12)N(C)c1cccc(F)c1` (stereo not drawn) [Compound 98]: the melting point worked out at 240 °C. Moreover, the Kd in data set [1] is 47 nM. Also, the affinity in data set [2], expressed as Kd, was 955 nM. Moreover, the dissociation constant (Kd) in data set [3] worked out at 479 nM. The Kd in data set [4] worked out at 2240 nM. The same compound had a dissociation constant Kd in data set [5] of 437 nM. In addition, the IC50 in data set [6] (Homo sapiens, PC-3, 1 h) is above 513 nM. Moreover, in data set [7] (Homo sapiens, PC-3, 1 h), the IC50 is above 513 nM.
Regarding `CC(Nc1cc(F)cc(F)c1)c1cc(C(=O)N(C)CCN(C)C)cc2ncc(N3CCOCC3)nc12` (single isomer, unassigned) [Compound 181], the melting point was 134 °C. For the same compound, the Kd in data set [1] stood at 117 nM. In data set [2], this compound came in with a Kd of 20400 nM. The compound further had a Kd in data set [3] of 5010 nM. Besides, in data set [4], the dissociation constant (Kd) was above 30200 nM. The Kd in data set [5] stood at 17800 nM. Also, in data set [6], the IC50 is around 447 nM. Further, in data set [7] (Homo sapiens, PC-3, 1 h), the half-inhibitory concentration (IC50) is around 398 nM.
In the case of `OCc1cc(C2CCCN2c2cc(F)cc(F)c2)c2nc(N3CCOCC3)cnc2c1` (stereo not drawn) [Compound 10], the melting point came to 189 °C. For the same compound, the Kd in data set [1] was found to be 0.5 nM. Also, binding in data set [2] was put at a Kd of 74 nM. For the same compound, in data set [3], the dissociation constant (Kd) turned out to be 142 nM. Further, the Kd in data set [4] is above 30200 nM. In data set [5], this compound came in with a dissociation constant Kd of 336 nM. The half-inhibitory concentration (IC50) in data set [6] (Homo sapiens, PC-3, 1 h) amounted to 4 nM. Also, the IC50 in data set [7] (Homo sapiens, PC-3, 1 h) came to 3 nM.
As for `CC(Nc1cccc(F)c1)c1cc(C(=O)NCC(=O)O)cc2ncc(N3CCOCC3)nc12` (single isomer, unassigned) [Compound 393a], the melting point stood at 115 °C. Also, in data set [1], the Kd came out at 11 nM. Besides, the affinity in data set [2], expressed as Kd, was 1230 nM. The same compound registered a dissociation constant (Kd) in data set [3] of 437 nM. This compound also gave a dissociation constant (Kd) in data set [4] of 6760 nM. In addition, binding in data set [5] was characterised by a dissociation constant (Kd) of 1380 nM. In addition, the IC50 in data set [6] (Homo sapiens, PC-3, 1 h) was above 513 nM. Further, the IC50 in data set [7] (Homo sapiens, PC-3, 1 h) was above 513 nM.
